Measured values: paper PMC9739815, “Akt/mTOR Targeting Activity of Resveratrol Derivatives in Non-Small Lung Cancer” (Molecules, 2022)
Each block holds one compound with its values, some of them ahead of it.

Tests used:
[1] = system: A549 cells; test: MTT cell viability assay, A549 cells; assay type: cell-based; conditions: Homo sapiens, 24 h, 0–200 µM, read-out: IC50 ± SEM of NSCLC cells, A549
Experimental: (§1) NSCLC cells were cultured overnight and treated with various concentrations (0–200 µM) of resveratrol derivatives (RD1-RD5) and resveratrol for 24 h, and then cell viability was analyzed by the 3-(4, 5-dimethylthiazolyl-2)-2, 5-diphenyltetrazolium bromide (MTT) assay to evaluate the percentage of cell viability. All of the data were calculated on the basis of the results of three replicated samples. […] The difference of the structure at C-4 was that the hydroxyl group of RD2 was modified to the methoxy group of RD3 and at C-3, the methoxy group of RD2 was changed to the hydroxyl group of RD3. […] Furthermore, resveratrol decreased cell viability in NSCLC cells (A549, H23, and H460) with the IC50 at more than 200 µM which was the same RD3 (Figure 2a–d). This different action on cancer cells as a result of chemical structure modification has provided an insight for the structure–activity relationship that may facilitate the further development of the potent compound from the lead structure of resveratrol derivatives. Cell viability was investigated by MTT colorimetric assay. All cell lines were cultured at the density of 1 × 10^4 cells per well in a 96-well tissue culture plate and incubated in an incubator. After that, cells were treated with various concentrations of RD1-RD5 for 24 h at 37 °C and analyzed by the MTT assay according to the manufacturer’s protocol (Sigma Chemical, St. Louis, MO, USA). In calculating the cell viability by a microplate reader (Anthros, Durham, NC, USA), the measured absorbance of treated cells were divided by the value of untreated cells and are reported as a percentage.

[2] = system: H460 cells; test: MTT cell viability assay, H460 cells; assay type: cell-based; conditions: Homo sapiens, NCI-H460, 24 h, 0–200 µM, read-out: IC50 ± SEM of NSCLC cells, H460
Experimental: as §1

[3] = system: H23 cells; test: MTT cell viability assay, H23 cells; assay type: cell-based; conditions: Homo sapiens, NCI-H23, 24 h, 0–200 µM, read-out: IC50 ± SEM of NSCLC cells, H23
Experimental: as §1

[4] = system: H23 cells; test: Colony formation assay, H23 cells; assay type: cell-based, human; conditions: for reduction of number of forming colonies: 24 h treatment, 7 days; for reduction of number of forming colonies / decrease of colony size: vs control
Experimental: (§2) Colony formation assay was used to confirm the anti-cancer action of resveratrol derivatives, as it is a cell proliferation assay which can detect the ability of a single cell to grow into a colony. NSCLC cells were seeded and treated with RD2 and RD3 (1–200 μM) for 24 h. The treated cells were subjected to colony formation assay for 7 days. The crystal violet-staining colony represented the colony suppression effect of RD2 and RD3 compared to the untreated control (Figure 3a,b). The RD2 compound dramatically abolished the forming colony. Colony number was absent in response to RD2 at the concentrations of 100 and 200 μM, whereas there was no significant response to RD3 (Figure 3a,b).
(§3) Cells were seeded at a density of 300 cells/well into 6-well plate and then further treated with various concentrations resveratrol derivatives for 24 h after that the medium was replaced and the cell were incubated for colony number and colony size were investigated after fixing with methanol and acetic acid (3:1) solution and staining with 0.05% w/v crystal violet in 4% formaldehyde.

[5] = system: A549 cells; test: Hoechst 33342/PI nuclear staining apoptosis assay, A549 cells; assay type: cell-based, human; conditions: 24 h
Experimental: (§4) Apoptosis is considered as an important mechanism of action of anti-cancer drugs. The important characteristics of apoptotic cells include the nuclear morphological changes, chromatin condensation, and DNA fragmentation. Hoechst 33342 and propidium iodide (PI) double staining was utilized to determine the mode of cell death by monitoring the nucleus morphology of apoptotic cells as well as their membrane integrity. Cells were seeded in a 96-well plate at the density of 1 × 10^4 cells/well and treated with various concentrations of RD2 and RD3 (10–200 μM) for 24 h. The cells were co-stained with Hoechst 33342 and PI. […] The red fluorescence of PI indicated a late apoptosis cell and necrotic cells.
(§5) This method was applied to define apoptotic and necrotic cell death by using nuclear staining with Hoechst 33342. The cells were seeded on 96-well plates at the density 1 × 10^4 cells per well in 96-well plates and incubated overnight. The cells were treated with various concentrations of RD1-RD5 and incubated for 24 h at 37 °C. Afterward, the cells were incubated with Hoechst 33342 (10 μg/mL) / PI (5 μg/mL) solution for 30 min at 37 °C. Then, they were visualized and imaged under a fluorescence microscope (Olympus DP70, Melville, NY, USA). Results are reported as a percentage of apoptotic cells.

[6] = system: H23 cells; test: Hoechst 33342/PI nuclear staining apoptosis assay, H23 cells; assay type: cell-based, human; conditions: 24 h
Experimental: as §4, §5

[7] = system: p-Akt/Akt in H23 cells; test: Western blot of p-Akt/Akt, H23 cells; assay type: cell-based, human; conditions: 12 h
Experimental: (§6) NSCLC cells (A549 and H23) were treated with RD2 and RD3 (10–100 μM) for 12 h. After which, all cells were collected and the expression levels of Akt, p-Akt, mTOR, and p-mTOR were investigated by Western blot analysis (Figure 5a, Figure 6a, Figure 7a and Figure 8a). […] Immunofluorescence staining of Akt, p-Akt, mTOR, and p-mTOR was performed in RD2 and RD3 treated cells. The results further confirm the effect of RD2 and RD3 on the Akt/mTOR pathway.
(§7) Western blotting was used to detect the presence of specific protein. Cells were seed at a density of 4 × 10^5 cells/well in 6 well plates overnight. Cells were treated with various concentrations RD1-RD5 were treated for 12 h. After treatment, the apoptosis cells were collected by centrifuging media with 1500 rpm for 5 min and aspirating supernatants. Then, cells were washed with cold 1× PBS and incubated with 1X RIPPA 40 µL containing 10× RIPA buffer 100 µL, protease inhibitors (PI) 100 µL, PMSF 10 µL, and Triton × 10 µL for 30 min on ice. BCA protein assay kit from Pierce Biotechnology (Rockford, IL, USA) analyzed protein concentrations. The extracted proteins were separated by 7.5–10% sodium dodecyl sulfate polyacrylamide gel electrophoresis (SDS-PAGE) and transferred to polyvinylidene difluoride membrane (PVDF). Then, the membranes were blocked with 5% non-fat milk powder for 2 h. After that, they were incubated with primary antibody at 4 °C Akt (#9272), phosphorylated Akt (#4060), mTOR (#2983S), and p-mTOR (#5536S) overnight. The membranes were washed with Tris-buffered saline/Tween 20 3 times and incubated with secondary antibodies for 2 h. Finally, the protein bands were detected using chemiluminescence substrate and exposed by Chemiluminescent ImageQuant LAS4000. Protein bands were analyzed using Image J software.

[8] = system: p-mTOR/mTOR in H23 cells; test: Western blot of p-mTOR/mTOR, H23 cells; assay type: cell-based, human; conditions: 12 h
Experimental: as §6, §7

[9] = system: p-Akt/Akt in A549 cells; test: Western blot of p-Akt/Akt, A549 cells; assay type: cell-based, human; conditions: 12 h
Experimental: as §6, §7

[10] = system: A549 cells; test: Colony formation assay, A549 cells; assay type: cell-based, human; conditions: for reduction of number of forming colonies: 24 h treatment, 7 days; for reduction of number of forming colonies / decrease of colony size: vs control
Experimental: as §2, §3

[11] = system: p-mTOR/mTOR in A549 cells; test: Western blot of p-mTOR/mTOR, A549 cells; assay type: cell-based, human; conditions: 12 h
Experimental: as §6, §7

[12] = system: p-mTOR in H23 cells; test: Immunofluorescence staining of p-mTOR, H23 cells; assay type: cell-based, human; conditions: 12 h, RD2 effect at 50–100 μM
Experimental: as §6
(§8) Cells were seeded at a density of 1 × 10^4 cells/well in 6-well plates overnight. Cells were treated with various concentrations resveratrol derivatives ([…]) and were treated for 12 h. Then, they were fixed with 4% paraformaldehyde in PBS for 15 min, permeabilized for 5 min with 0.5% Triton-X, and blocked with 0.1% Triton-X in 10% FBD in PBS for 1 h at room temperature. Cells were added to the primary antibody Akt (#9272), phosphorylated Akt (#4060), mTOR (#2983S), and p-mTOR (#5536S). Then, they were incubated at 4 °C overnight. After that, they were incubated with secondary antibody for 1 h and stained with Hoechst 33342 for 30 min at room temperature in a dark place. The images were visualized under a fluorescent microscope (Olympus DP70, Melville, NY, USA) and analyzed by The ImageJ software.

[13] = system: DP cells; test: MTT cell viability assay, normal dermal papilla (DP) cells; assay type: cell-based; conditions: 24 h; for effect on cell viability percentages in DP cells: normal human dermal papilla cells; for IC50: Human dermal papilla cell, 0–200 µM, read-out: IC50 ± SEM of DP cells
Experimental: To confirm the selective cytotoxicity of resveratrol derivatives (RD2 and RD3) in cancer cells, resveratrol derivatives (RD2 and RD3) and resveratrol were determined for the cytotoxic profile in normal human cells, dermal papilla (DP).
Cell viability was investigated by MTT colorimetric assay. All cell lines were cultured at the density of 1 × 10^4 cells per well in a 96-well tissue culture plate and incubated in an incubator. After that, cells were treated with various concentrations of RD1-RD5 for 24 h at 37 °C and analyzed by the MTT assay according to the manufacturer’s protocol (Sigma Chemical, St. Louis, MO, USA). In calculating the cell viability by a microplate reader (Anthros, Durham, NC, USA), the measured absorbance of treated cells were divided by the value of untreated cells and are reported as a percentage.

[14] = system: p-mTOR in A549 cells; test: Immunofluorescence staining of p-mTOR, A549 cells; assay type: cell-based, human; conditions: 12 h, RD2 effect at 50–100 μM
Experimental: as §6, §8

[15] = system: p-Akt in H23 cells; test: Immunofluorescence staining of p-Akt, H23 cells; assay type: cell-based, human; conditions: 10–100 µM, vs untreated control
Experimental: as §6, §8

[16] = system: p-Akt in A549 cells; test: Immunofluorescence staining of p-Akt, A549 cells; assay type: cell-based, human; conditions: 10–100 µM, vs untreated control
Experimental: as §6, §8

IC50 [1]: 164 ± 26.2 µM
IC50 [2]: > 200 µM
SMILES: COc1cc(CCc2cc(C)c(OC)c(O)c2)cc(OC)c1O [RD1, 5-(4-hydroxy-3,5-dimethoxyphenethyl)-2-methoxy-3-methylphenol]
IC50 [3]: 129 ± 8.91 µM

IC50 [1]: 109 ± 10.8 µM
IC50 [2]: 138 ± 25.6 µM
SMILES: COc1cc(CCc2ccc(O)c(OC)c2)ccc1O [RD2, 4,4′-(ethane-1,2-diyl)bis(2-methoxyphenol)]
reduction of number of forming colonies ([4]; 10 μM): 25.43%
reduction of number of forming colonies ([4]; 100 μM): 94.16%
decrease of colony size ([4]; 100 μM): 64.42%
reduction of number of forming colonies ([4]; 200 μM): 98.23%
decrease of colony size ([4]; 200 μM): 65.98%
apoptotic ratio ([5]; 10 μM): 23.25%
apoptotic ratio ([5]; 100 μM): 61.26%
apoptotic ratio ([5]; 200 μM): 86.30%
apoptotic ratio ([6]; 100 μM): 36.63%
apoptotic ratio ([6]; 200 μM): 75.79%
p-Akt/Akt protein expression levels ([7]; 50 μM, vs untreated control): significant decrease
p-Akt/Akt protein expression levels ([7]; 100 μM, vs untreated control): significant decrease
p-mTOR/mTOR protein expression levels ([8]; 100 μM, vs untreated control): significant decrease
p-Akt/Akt protein expression levels ([9]; A549 cells, 50 μM, vs untreated control): significant decrease
p-Akt/Akt protein expression levels ([9]; A549 cells, 100 μM, vs untreated control): significant decrease
reduction of number of forming colonies ([10]; 10 μM): 31.04%
reduction of number of forming colonies ([10]; 100 μM): 98.18%
decrease of colony size ([10]; 100 μM): 71.66%
reduction of number of forming colonies ([10]; 200 μM): 99.40%
decrease of colony size ([10]; 200 μM): 85.42%
p-mTOR/mTOR protein expression levels ([11]; 100 μM, vs untreated control): significant decrease
p-mTOR signal intensity [12]: dramatic decrease
IC50 [3]: 104 ± 6.08 µM
effect on cell viability percentages in DP cells [13]: did not significantly affect
IC50 [13]: > 200 µM
p-mTOR signal intensity [14]: dramatic decrease

IC50 [1]: > 200 µM
IC50 [2]: > 200 µM
SMILES: COc1ccc(CCc2ccc(O)c(OC)c2)cc1O [RD3, 4-(3-hydroxy-4-methoxyphenethyl)-2-methoxyphenol]
p-Akt intensity [15]: significantly increased
reduction of number of forming colonies ([4]; 10 μM): 24.83%
reduction of number of forming colonies ([4]; 100 μM): 27.70%
reduction of number of forming colonies ([4]; 200 μM): 59.74%
effect on colony size ([4]; 10–200 μM): no significant effect
p-Akt intensity [16]: significantly increased
apoptotic ratio ([5]; 200 μM): 13.25%
apoptotic ratio ([6]; 200 μM): 18.57%
p-Akt/Akt protein expression levels ([7]; 10–100 μM): increased
p-mTOR/mTOR protein expression levels ([8]; 10–100 μM): no effect
p-Akt/Akt protein expression levels ([9]; A549 cell, 10–200 μM): increased
reduction of number of forming colonies ([10]; 10 μM): 20.44%
reduction of number of forming colonies ([10]; 100 μM): 21.94%
reduction of number of forming colonies ([10]; 200 μM): 38.91%
effect on colony size ([10]; 10–200 μM): no significant effect
p-mTOR/mTOR protein expression levels ([11]; 10–100 μM): no effect
p-mTOR signal intensity [12]: only minimally affected
IC50 [3]: > 200 µM
effect on cell viability percentages in DP cells [13]: did not significantly affect
IC50 [13]: > 200 µM
p-mTOR signal intensity [14]: only minimally affected
